Experimental data published in patent US20230404976A1, “PHARMACEUTICAL COMBINATION CONTAINING CAPSID PROTEIN INHIBITOR AND NUCLEOSIDE ANALOG” (priority 2020, published 2023).

Tested on: HBV DNA in mouse serum (rAAV8-1.3HBV, type D, ayw)
Test: AAV/HBV mouse model: qPCR quantification of HBV DNA in mouse serum
Assay type: in vivo, C57BL/6 mice
Conditions: for HBV DNA (log10, copy/μL) time (days) post-dose: 3: day 3; for HBV DNA (log10, copy/μL) time (days) post-dose: 3 / HBV DNA (log10, copy/μL) time (days) post-dose: 7 / HBV DNA (log10, copy/μL) time (days) post-dose: 14 / HBV DNA (log10, copy/μL) time (days) post-dose: 21 / HBV DNA (log10, copy/μL) time (days) post-dose: 28: i.g. days 0-27; for HBV DNA (log10, copy/μL) time (days) post-dose: 7: day 7; for HBV DNA (log10, copy/μL) time (days) post-dose: 14: day 14; for HBV DNA (log10, copy/μL) time (days) post-dose: 21: day 21; for HBV DNA (log10, copy/μL) time (days) post-dose: −1: day −1 (before first dose)
Protocol: Male C57BL/6 mice, 5 weeks old, free of specific pathogens, purchased from Shanghai Slac Laboratory Animal Co., Ltd., housed in independent ventilated cages. The mice were acclimatized for 3 days and then injected with the AAV/HBV virus.
rAAV8-1.3HBV (type D, ayw) was purchased from FivePlus, Beijing. It was diluted with sterile PBS to 5×10^11 v.g./mL before experiment. Each mouse was injected with 200 μL, i.e., 1×10^11 v.g.
AAV/HBV injection: rAAV8-1.3HBV was prepared into a 1×10^11 v.g./200 μL solution with sterile PBS in advance before injection. Mice were injected with 200 μL of the rAAV8-1.3HBV solution via the tail vein.
Grouping: On day 27 post virus injection, according to the serum HBV DNA, HBeAg and HBsAg results on days 14 and 21, the mice were randomized into groups of 8 or 4 and correspondingly treated according to the experimental design.
Group number: • i. Solvent group; • ii. Monotherapy group: entecavir; • iii. Monotherapy group: the compound of formula I 3 mpk; • iv. Combination group (combo): the compound of formula I 3 mpk and entecavir; • v. Monotherapy group: the compound of formula I 10 mpk; • vi. Combination group (combo): the compound of formula I 10 mpk and entecavir.
Compound treatment: On day 28 post infection, all mice were intragastrically administered a solvent or compound. The day of the first administration was counted as day 0 of experiment, and the duration of administration was from day 0 to day 27. Entecavir was administered once daily (QD) and the compound of formula I was administered twice daily (BID, 8 hr/16 hr apart). The administration volume was 10 mL/kg.
Non-endpoint blood collection: On day −1, 3, 7, 14, 21, 28, 35 or 42, about 120 μL of blood was collected from the submandibular vein, and serum was collected and assayed for HBV DNA. If blood collection and administration were on the same day, blood collection was performed about 5 hours after the first administration on that day.
Endpoints of experiment: mice in groups i-iv were euthanized on day 28. Blood was collected from the hearts of the mice, and serum was collected and assayed for HBV DNA. The endpoints of experiment for groups v and vi were on day 42.
qPCR Quantification of HBV DNA in mouse serum: The DNA was extracted from serum, and the experiment was performed by following the instructions for QIAamp 96 DNA Blood Kit. qPCR conditions: 95 ° C., 10 min, 1 cycle; 95° C., 15 s; 60° C., 1 min; 40 cycles.
Data were expressed as mean ±standard error, and statistical analysis was performed using Student t test.

[1] = entecavir 0.001 mg/kg QD, compound of formula I 3 mg/kg BID, mean ± standard error, LLOQ 2.08
[2] = day 28 (endpoint), entecavir 0.001 mg/kg QD, compound of formula I 3 mg/kg BID, mean ± standard error, LLOQ 2.08
[3] = Table 4 groups: entecavir 0.001 mg/kg QD, compound of formula I 3 mg/kg BID, i.g., mean ± standard error
[4] = compound of formula I 10 mg/kg BID, entecavir 0.001 mg/kg QD, values below LLOQ expressed as 2.08

Row | Structure (SMILES) | HBV DNA (log10, copy/μL) time (days) post-dose: 3 [1] | HBV DNA (log10, copy/μL) time (days) post-dose: 7 [1] | HBV DNA (log10, copy/μL) time (days) post-dose: 14 [1] | HBV DNA (log10, copy/μL) time (days) post-dose: 21 [1] | HBV DNA (log10, copy/μL) time (days) post-dose: 28 [2] | HBV DNA (log10, copy/μL) time (days) post-dose: −1 [3] | HBV DNA (log10, copy/μL) time (days) post-dose: 14 [4] | HBV DNA (log10, copy/μL) time (days) post-dose: 21 [4] | HBV DNA (log10, copy/μL) time (days) post-dose: 28 (day 28, compound of formula I 10 mg/kg BID, entecavir 0.001 mg/kg QD, values below LLOQ expressed as 2.08) | HBV DNA (log10, copy/μL) time (days) post-dose: 31 (day 31 (after end of dosing on day 27), compound of formula I 10 mg/kg BID, entecavir 0.001 mg/kg QD, i.g., LLOQ 2.08) | HBV DNA (log10, copy/μL) time (days) post-dose: 35 (day 35 (after end of dosing on day 27), compound of formula I 10 mg/kg BID, entecavir 0.001 mg/kg QD, i.g., LLOQ 2.08) | HBV DNA (log10, copy/μL) time (days) post-dose: 42 (day 42 (endpoint, after end of dosing on day 27), compound of formula I 10 mg/kg BID, entecavir 0.001 mg/kg QD, i.g., LLOQ 2.08) | HBV DNA (log10, copy/μL) time (days) post-dose: −1 (Table 5 groups: compound of formula I 10 mg/kg BID, entecavir 0.001 mg/kg QD, i.g., mean ± standard error)
1 | C=C1[C@H](CO)[C@@H](O)C[C@@H]1n1cnc2c(=O)[nH]c(N)nc21 [Entecavir, 2-amino-9-[(1S,3R,4S)-4-hydroxy-3-hydroxymethyl-2-methylenecyclopentyl]-1,9-dihydro-6H-purin-6-one, reference compound] | 3.11 ± 0.10 log10, copy/μL | 2.69 ± 0.11 log10, copy/μL | 2.75 ± 0.13 log10, copy/μL | 2.79 ± 0.12 log10, copy/μL | 2.70 ± 0.17 log10, copy/μL | 4.19 ± 0.12 log10, copy/μL |  |  |  |  |  |  | 
2 | C[C@]1(NC(=O)C(=O)c2c(Cl)c(C(=O)Nc3cc(F)c(F)c(F)c3)c3n2CCC3)CC[C@H](CC(=O)O)CC1 [Compound of formula I, 2-((1r,4r)-4-(2-(6-chloro-7((3,4,5-trifluorophenyl)carbamoyl)-2,3-dihydro-1H-pyrrolin-5-yl)-2-oxalylamino)-4-methylcyclohexyl)acetic acid] | 3.71 ± 0.10 log10, copy/μL | 3.63 ± 0.09 log10, copy/μL | 3.71 ± 0.06 log10, copy/μL | 3.61 ± 0.11 log10, copy/μL | 3.96 ± 0.11 log10, copy/μL | 4.46 ± 0.07 log10, copy/μL | 2.10 ± 0.02 log10, copy/μL | 2.08 ± 0.00 log10, copy/μL | 2.12 ± 0.04 log10, copy/μL | 3.56 ± 0.12 log10, copy/μL | 4.38 ± 0.09 log10, copy/μL | 4.64 ± 0.08 log10, copy/μL | 4.45 ± 0.07 log10, copy/μL
